According to PMC8876525 (Viruses, 2022):
Read-outs that look alike come from different tables or passages of the source. Marks after values point to notes of the source that are not given here.

What was measured:
[1] = CCK-8 cytotoxicity assay in HepAD38 cells; type: cell-based, Human; conditions: human, 6 days
[2] = tested on: HBV; assay: Secreted HBV DNA in HepAD38 culture supernatant (RT-qPCR); type: cell-based; conditions: HepAD38 cells; for EC50: 6 days, read-out: EC50 (secreted HBV DNA); for Residual HBV DNA level (secreted) relative to DMSO control: 20 μM compound
[3] = tested on: HBV encapsidated pgRNA; assay: Encapsidated pgRNA and total HBV RNAs (Northern blot); type: cell-based; conditions: HepAD38 cells, BAY 41-4109 2 μM; for Effect on HBV encapsidated pgRNA: C-18, C-39, C-19 5 μM, ETV 25 nM
[4] = target: HBV capsid (Hepatitis B virus genotype D subtype ayw, UniProt P03146); assay: Intracellular HBV capsid formation; type: cell-based; conditions: HepAD38 or HepG2-HBV1.3 cells, compounds 10 μM, ETV 25 nM, BAY 41-4109 2 μM, 6 days
[5] = target: Cp149 protein (Hepatitis B virus genotype D subtype ayw, UniProt P03146); assay: Cp149 capsid assembly in vitro, transmission electron microscopy; type: biochemical, HBV; conditions: Cp149 5 μM dimer, 300 mM NaCl, 150 mM HEPES pH 7.5; BAY 41-4109 5 μM 3 days, C-39 20 μM 3 and 7 days
[6] = tested on: HBsAg; assay: Secreted HBsAg ELISA; type: cell-based, HBV; conditions: 6 days, ETV 25 nM, BAY 41-4109 2 μM
[7] = target: HBc (Hepatitis B virus genotype D subtype ayw, UniProt P03146); assay: Immunofluorescence of HBV core protein in HepAD38 cells; type: cell-based; conditions: 3 days, BAY 41-4109 2 μM
[8] = tested on: HepAD38 cells; assay: CCK-8 cytotoxicity assay in HepAD38 cells; type: cell-based, Human

Chain of HBV capsid (P03146 whole entry): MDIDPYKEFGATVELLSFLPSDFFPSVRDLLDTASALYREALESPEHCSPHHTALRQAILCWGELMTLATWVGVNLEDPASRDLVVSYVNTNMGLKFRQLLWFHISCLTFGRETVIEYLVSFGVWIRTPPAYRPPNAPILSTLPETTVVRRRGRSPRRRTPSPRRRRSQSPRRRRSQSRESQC
Chain of HBc (P03146 whole entry): as above
Chain of Cp149 protein (P03146 1-149): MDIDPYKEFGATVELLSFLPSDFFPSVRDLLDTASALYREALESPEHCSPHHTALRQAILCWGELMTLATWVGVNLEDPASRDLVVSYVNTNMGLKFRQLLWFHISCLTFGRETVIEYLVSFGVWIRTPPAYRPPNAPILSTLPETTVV

Cc1nc(-c2csc(S(=O)(=O)N3CCCC(C(=O)Nc4ccc(F)c(Cl)c4)C3)c2)no1 (stereo not shown) [Compound C-41]
CC50 at 6 days [1]: 95600 ± 15700 nM | SI (CC50/EC50) [2]: 1542 ^a | EC50 ([2]; Hepatitis B virus, 144 h): 62 ± 13 nM

O=C(CSc1nnc2ccc(C(=O)Nc3cccc(F)c3)cn12)Nc1ccc(F)c(F)c1 [Compound C-25]
CC50 at 6 days [1]: 33200 ± 1900 nM | SI (CC50/EC50) [2]: 114.6 ^a | EC50 ([2]; Hepatitis B virus, 144 h): 290 ± 20 nM

COC(=O)C1=C(C)NC(c2ncc(F)cc2F)=N[C@H]1c1ccc(F)cc1Cl [BAY 41-4109, reference compound]
Effect on intracellular total HBV RNAs ([3]; C-18, C-39 5 μM): slight decrease | Effect on HBV encapsidated pgRNA [3]: markedly downregulated | EC50 [2]: 67 ± 10 nM | Effect on intracellular HBV capsid formation at single concentration [4]: dramatically inhibited capsid formation | Morphology of assembled Cp149 particles (TEM) [5]: large irregular particles | Effect on secreted HBsAg ([6]; HepAD38 cells): no impact on HBsAg production | Effect on secreted HBsAg ([6]; HepG2-HBV1.3 cells): no impact on HBsAg production | HBc localisation / aggregation ([7]; C-18 and C-39 5 μM): induced punctate HBc aggregation within the nucleus | HBc level by immunofluorescence ([7]; C-39 5 μM): significantly decreased the HBc level

O=C(Nc1ccc(F)c(F)c1)c1cc(S(=O)(=O)N(CCc2ccccc2)Cc2ccccc2)ccc1F [Compound C-19]
Effect on HBV encapsidated pgRNA [3]: slight effects | CC50 at 6 days [1]: 75300 ± 5200 nM | SI (CC50/EC50) [2]: 194.1 | EC50 ([2]; Hepatitis B virus, 144 h): 390 ± 130 nM | Effect on intracellular HBV capsid formation at single concentration [4]: did not affect the capsid formation

O=C(Nc1ccc(F)c(F)c1)c1cc2nccc(-c3cccs3)n2n1 [Compound C-2]
Residual HBV DNA level (secreted) relative to DMSO control [2]: 44%

CC1(C(=O)NCc2ccc(F)cc2)CCCN(C(=O)Nc2ccc(F)c(Cl)c2)C1 (stereo not shown) [Compound C-27]
CC50 at 6 days [1]: 81500 ± 5800 nM | SI (CC50/EC50) [2]: 72.8 ^a | EC50 ([2]; Hepatitis B virus, 144 h): 1120 ± 50 nM

O=C(Nc1ccc(F)c(Cl)c1)C1CCCN(S(=O)(=O)c2c[nH]c(C(=O)N3CCCC3)c2)C1 (stereo not shown) [Compound C-40]
CC50 at 6 days [1]: 12600 ± 700 nM | Cytotoxicity in words [8]: medium cytotoxicity | SI (CC50/EC50) [2]: 32.3 ^a | EC50 ([2]; Hepatitis B virus, 144 h): 390 ± 10 nM

CCOC(=O)c1c(C)[nH]c(C)c1S(=O)(=O)N1CCCC(C(=O)Nc2ccc(F)c(Cl)c2)C1 (stereo not shown) [Compound C-37]
CC50 at 6 days [1]: 11000 ± 700 nM | SI (CC50/EC50) [2]: 31.3 ^a | EC50 ([2]; Hepatitis B virus, 144 h): 350 ± 50 nM

Cc1cccc(NC(=O)c2ccc3nnc(SCC(=O)Nc4ccc(F)c(F)c4)n3c2)c1 [Compound C-16]
CC50 at 6 days [1]: 72400 ± 1900 nM | SI (CC50/EC50) [2]: 56.3 | EC50 ([2]; Hepatitis B virus, 144 h): 1290 ± 350 nM | Effect on intracellular HBV capsid formation at single concentration [4]: did not affect the capsid formation

O=C(CSc1nnc(-c2cccs2)n1CCc1ccccc1)Nc1ccc(F)cc1 [Compound C-7]
CC50 at 6 days [1]: > 100000 nM | SI (CC50/EC50) [2]: >54.7 | EC50 ([2]; Hepatitis B virus, 144 h): 1830 ± 440 nM | Effect on intracellular HBV capsid formation at single concentration [4]: moderate inhibition

Cc1nnc2ccc(N3CCCC(C(=O)Nc4ccc(F)c(Cl)c4)C3)nn12 (stereo not shown) [Compound C-4]
Residual HBV DNA level (secreted) relative to DMSO control [2]: 21%
